The values below come from patent US7109193B2, “Tricyclic diazepines tocolytic oxytocin receptor antagonists” (Wyeth, priority 2001, dated 2006).

The term inhibition denotes the drop in the measured response relative to a control, in per cent.

Structures are written as SMILES.

The test concerns the target T1, human oxytocin receptor (Homo sapiens, UniProt P30559).
T1 construct: host or cells: CHO cells (pcDNA3.1 vector)
T1 sequence (P30559 1-389): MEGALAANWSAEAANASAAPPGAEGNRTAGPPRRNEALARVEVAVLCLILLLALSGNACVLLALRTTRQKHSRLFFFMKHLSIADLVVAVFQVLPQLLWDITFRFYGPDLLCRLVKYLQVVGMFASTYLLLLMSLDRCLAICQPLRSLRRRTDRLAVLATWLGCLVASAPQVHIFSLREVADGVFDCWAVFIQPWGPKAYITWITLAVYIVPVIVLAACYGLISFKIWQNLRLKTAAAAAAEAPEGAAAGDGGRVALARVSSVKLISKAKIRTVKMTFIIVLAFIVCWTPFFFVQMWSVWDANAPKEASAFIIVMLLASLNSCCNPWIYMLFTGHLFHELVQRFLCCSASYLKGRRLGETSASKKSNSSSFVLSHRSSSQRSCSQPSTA
The test is described as follows: Oxytocin binding in Chinese Hamster Ovary cell membranes expressing human oxytocin receptors. Conditions: 100 nM, CHO cell membranes, [3H]oxytocin, values without parentheses, read-out: OT % inhibition @ 100% nM.

With `CCOc1ccccc1-c1cc(OC)c(C(=O)N2Cc3cccn3Cc3ccccc32)cc1Cl` [Example 17, 10-{[6-Chloro-3-methoxy-2′-ethoxy[1,1′-biphenyl]-4-yl]carbonyl}-10,11-dihydro-5H-pyrrolo[2,1-c][1,4]benzodiazepine], the inhibition at 0.1 µM was found to be 28%. Regarding `COc1cc(C(=O)N2Cc3cccn3Cc3ccccc32)ccc1-c1ccccc1C(F)(F)F` [Example 19D, (10,11-Dihydro-5H-pyrrolo[2,1-c][1,4]benzodiazepin-10-yl)-(2-methoxy-2′-trifluoromethyl-[1,1′-biphenyl]-4-yl)-methanone], the inhibition at 0.1 µM is 97%.

Take `O=C(c1ccc(-c2ccccc2)nc1)N1Cc2cccn2Cc2ccccc21` [Example 29, (6-Phenyl-pyridin-3-yl)-[10,11-dihydro-5H-pyrrolo[2,1-c][1,4]benzodiazepin-10-yl]methanone]: the inhibition at 0.1 µM was found to be 51%.

As for `Cc1cc(C(=O)N2Cc3cccn3Cc3ccccc32)cc(C)c1-n1c(C)ccc1C` [Example 30, [4-(2,5-Dimethyl-1H-pyrrol-1-yl)-3,5-dimethyl-phenyl][10,11-dihydro-5H-pyrrolo[2,1-c][1,4]benzodiazepin-10-yl]methanone], the inhibition at 0.1 µM was found to be 48%. Take `Cc1cc(C(=O)N2Cc3cccn3Cc3ccccc32)ccc1-c1ccncc1` [Example 31, [3-Methyl-4-(4-pyridinyl)phenyl]-[10,11-dihydro-5H-pyrrolo[2,1-c][1,4]benzodiazepin-10-yl]methanone]: the inhibition at 0.1 µM stood at 69%. For the molecule `COc1ccccc1-c1ccc(C(=O)N2Cc3ccc(C(=O)N4CCN(C)CC4)n3Cc3ccccc32)cc1C` [Example 49, {10-[(2′-Methoxy-2-methyl[1,1′-biphenyl]-4-yl)carbonyl]-10,11-dihydro-5H-pyrrolo[2,1-c][1,4]benzodiazepin-3-yl}(4-methyl-1-piperazinyl)methanone], the inhibition at 0.1 µM is 92%. Consider `Cc1ccccc1-c1ccc(C(=O)N2Cc3ccc(C(=O)N4CCN(C)CC4)n3Cc3ccccc32)cc1C` [Example 50, {10-[(2,2′-Dimethyl[1,1′-biphenyl]-4-yl)carbonyl]-10,11-dihydro-5H-pyrrolo[2,1-c][1,4]benzodiazepin-3-yl}(4-methyl-1-piperazinyl)methanone], for which the inhibition at 0.1 µM stood at 95%. `COc1cccc(-c2ccc(C(=O)N3Cc4ccc(C(=O)N5CCN(C)CC5)n4Cc4ccccc43)cc2C)c1` [Example 51, {10-[(3′-Methoxy-2-methyl[1,1′-biphenyl]-4-yl)carbonyl]-10,11-dihydro-5H-pyrrolo[2,1-c][1,4]benzodiazepin-3-yl}(4-methyl-1-piperazinyl)methanone]: the inhibition at 0.1 µM was found to be 81%. In the case of `Cc1ccccc1-c1ccc(C(=O)N2Cc3ccc(C(=O)N4CCN(C)CC4)n3Cc3ccccc32)cc1` [Example 52, {10-[(2′-Methyl[1,1′-biphenyl]-4-yl)carbonyl]-10,11-dihydro-5H-pyrrolo[2,1-c][1,4]benzodiazepin-3-yl}(4-methyl-1-piperazinyl)methanone], the inhibition at 0.1 µM worked out at 86%. Take `COc1cc(C(=O)N2Cc3ccc(C(=O)N4CCN(C)CC4)n3Cc3ccccc32)ccc1-c1ccccc1C` [Example 53, {10-[(2-Methoxy-2′-methyl[1,1′-biphenyl]-4-yl)carbonyl]-10,11-dihydro-5H-pyrrolo[2,1-c][1,4]benzodiazepin-3-yl}(4-methyl-1-piperazinyl)methanone]: the inhibition at 0.1 µM was determined as 89%.

In the case of `COc1cccc(-c2cc(OC)c(C(=O)N3Cc4ccc(C(=O)N5CCN(C)CC5)n4Cc4ccccc43)cc2Cl)c1` [Example 54, {10-[(6-Chloro-3,3′-dimethoxy[1,1′-biphenyl]-4-yl)carbonyl]-10,11-dihydro-5H-pyrrolo[2,1-c][1,4]benzodiazepin-3-yl}(4-methyl-1-piperazinyl)methanone], the inhibition at 0.1 µM was determined as 78%.

With `COc1cc(C(=O)N2Cc3ccc(C(=O)N4CCN(C)CC4)n3Cc3ccccc32)ccc1-c1cccc2ccccc12` [Example 55, {10-[3-Methoxy-4-(1-naphthyl)benzoyl]-10,11-dihydro-5H-pyrrolo[2,1-c][1,4]benzodiazepin-3-yl}(4-methyl-1-piperazinyl)methanone], the inhibition at 0.1 µM was determined as 67%. For `COc1ccccc1-c1ccc(C(=O)N2Cc3ccc(C(=O)N4CCN(C)CC4)n3Cc3ccccc32)cc1OC` [Example 56, {10-[(2,2′-Dimethoxy[1,1′-biphenyl]-4-yl)carbonyl]-10,11-dihydro-5H-pyrrolo[2,1-c][1,4]benzodiazepin-3-yl}(4-methyl-1-piperazinyl)methanone], the inhibition at 0.1 µM was determined as 68%. `COc1cccc(-c2ccc(C(=O)N3Cc4ccc(C(=O)N5CCN(C)CC5)n4Cc4ccccc43)cc2OC)c1` [Example 57, {10-[(2,3′-Dimethoxy[1,1′-biphenyl]-4-yl)carbonyl]-10,11-dihydro-5H-pyrrolo[2,1-c][1,4]benzodiazepin-3-yl}(4-methyl-1-piperazinyl)methanone]: the inhibition at 0.1 µM was found to be 76%.

`CN1CCN(C(=O)c2ccc3n2Cc2ccccc2N(C(=O)c2ccc(-c4cccc5ccccc45)cc2Cl)C3)CC1` [Example 58, {10-[2-Chloro-4-(1-naphthyl)benzoyl]-10,11-dihydro-5H-pyrrolo[2,1-c][1,4]benzodiazepin-3-yl}(4-methyl-1-piperazinyl)methanone]: the inhibition at 0.1 µM amounted to 24%.

As to `COc1ccccc1-c1ccc(C(=O)N2Cc3ccc(C(=O)N4CCCN(C)CC4)n3Cc3ccccc32)cc1C` [Example 62, {10-[(2′-Methoxy-2-methyl[1,1′-biphenyl]-4-yl)carbonyl]-10,11-dihydro-5H-pyrrolo[2,1-c][1,4]benzodiazepin-3-yl}(4-methyl-1,4-diazepan-1-yl)methanone], the inhibition at 0.1 µM was 91%.

For `Cc1ccccc1-c1ccc(C(=O)N2Cc3ccc(C(=O)N4CCCN(C)CC4)n3Cc3ccccc32)cc1C` [Example 63, {10-[(2,2′-Dimethyl[1,1′-biphenyl]-4-yl)carbonyl]-10,11-dihydro-5H-pyrrolo[2,1-c][1,4]benzodiazepin-3-yl}(4-methyl-1,4-diazepan-1-yl)methanone], the inhibition at 0.1 µM was 98%.

Take `COc1cccc(-c2ccc(C(=O)N3Cc4ccc(C(=O)N5CCCN(C)CC5)n4Cc4ccccc43)cc2C)c1` [Example 64, {10-[(3′-Methoxy-2-methyl[1,1′-biphenyl]-4-yl)carbonyl]-10,11-dihydro-5H-pyrrolo[2,1-c][1,4]benzodiazepin-3-yl}(4-methyl-1,4-diazepan-1-yl)methanone]: the inhibition at 0.1 µM is 74%.

As to `Cc1ccccc1-c1ccc(C(=O)N2Cc3ccc(C(=O)N4CCCN(C)CC4)n3Cc3ccccc32)cc1` [Example 65, {10-[(2′-Methyl[1,1′-biphenyl]-4-yl)carbonyl]-10,11-dihydro-5H-pyrrolo[2,1-c][1,4]benzodiazepin-3-yl}(4-methyl-1,4-diazepan-1-yl)methanone], the inhibition at 0.1 µM was 68%. For `COc1cc(C(=O)N2Cc3ccc(C(=O)N4CCCN(C)CC4)n3Cc3ccccc32)ccc1-c1ccccc1C` [Example 66, {10-[(2-Methoxy-2′-methyl[1,1′-biphenyl]-4-yl)carbonyl]-10,11-dihydro-5H-pyrrolo[2,1-c][1,4]benzodiazepin-3-yl}(4-methyl-1,4-diazepan-1-yl)methanone] the value was 87%; for `COc1cccc(-c2cc(OC)c(C(=O)N3Cc4ccc(C(=O)N5CCCN(C)CC5)n4Cc4ccccc43)cc2Cl)c1` [Example 67, {10-[(6-Chloro-3,3′-dimethoxy[1,1′-biphenyl]-4-yl)carbonyl]-10,11-dihydro-5H-pyrrolo[2,1-c][1,4]benzodiazepin-3-yl}(4-methyl-1,4-diazepan-1-yl)methanone], 79%; for `COc1cc(C(=O)N2Cc3ccc(C(=O)N4CCCN(C)CC4)n3Cc3ccccc32)ccc1-c1cccc2ccccc12` [Example 68, {10-[3-Methoxy-4-(1-naphthyl)benzoyl]-10,11-dihydro-5H-pyrrolo[2,1-c][1,4]benzodiazepin-3-yl}(4-methyl-1,4-diazepan-1-yl)methanone], 64%. With `COc1ccccc1-c1ccc(C(=O)N2Cc3ccc(C(=O)N4CCCN(C)CC4)n3Cc3ccccc32)cc1OC` [Example 69, {10-[(2,2′-Dimethoxy[1,1′-biphenyl]-4-yl)carbonyl]-10,11-dihydro-5H-pyrrolo[2,1-c][1,4]benzodiazepin-3-yl}(4-methyl-1,4-diazepan-1-yl)methanone] the figure was 71%; with `COc1cccc(-c2ccc(C(=O)N3Cc4ccc(C(=O)N5CCCN(C)CC5)n4Cc4ccccc43)cc2OC)c1` [Example 70, {10-[(2,3′-Dimethoxy[1,1′-biphenyl]-4-yl)carbonyl]-10,11-dihydro-5H-pyrrolo[2,1-c][1,4]benzodiazepin-3-yl}(4-methyl-1,4-diazepan-1-yl)methanone], 75%. Regarding `CN1CCCN(C(=O)c2ccc3n2Cc2ccccc2N(C(=O)c2ccc(-c4cccc5ccccc45)cc2Cl)C3)CC1` [Example 71, {10-[2-Chloro-4-(1-naphthyl)benzoyl]-10,11-dihydro-5H-pyrrolo[2,1-c][1,4]benzodiazepin-3-yl}(4-methyl-1,4-diazepan-1-yl)methanone], the inhibition at 0.1 µM is 25%. With `COc1ccccc1-c1ccc(C(=O)N2Cc3ccc(C(=O)NCCCN(C)C)n3Cc3ccccc32)cc1C` [Example 72, N-[3-(Dimethylamino)propyl]-10-[(2′-methoxy-2-methyl[1,1′-biphenyl]-4-yl)carbonyl]-10,11-dihydro-5H-pyrrolo[2,1-c][1,4]benzodiazepine-3-carboxamide], the inhibition at 0.1 µM was determined as 74%.
